According to ChEMBL document CHEMBL1133599, “Inhibitors of tripeptidyl peptidase II. 2. Generation of the first novel lead inhibitor of cholecystokinin-8-inactivating peptidase: a strategy for the design of peptidase inhibitors” (J Med Chem, 2000):
Where a SMILES comes first, the peptide text is derived from it. [ ]: non-standard residue; d: D form. The star is where a group is joined. 2Nal = N[C@@H](Cc1ccc2ccccc2c1)C(=O)O; hPhe = N[C@@H](CCc1ccccc1)C(=O)O; Cha = N[C@@H](CC1CCCCC1)C(=O)O; Phg = N[C@H](C(=O)O)c1ccccc1; Nle = CCCC[C@H](N)C(=O)O; Nva = CCC[CH](N)C(=O)O; Cbz = O=C(OCc1ccccc1)*; Bn = c1ccc(C*)cc1; NHBu = CCCCN*

Target: Tripeptidyl-peptidase 2 (Rattus norvegicus, UniProt Q64560)
Experiment: Inhibition potency against Cholecystokinin-8-Inactivating Peptidase (Serine Peptidase).

Chain of Tripeptidyl-peptidase 2 (Q64560 whole entry): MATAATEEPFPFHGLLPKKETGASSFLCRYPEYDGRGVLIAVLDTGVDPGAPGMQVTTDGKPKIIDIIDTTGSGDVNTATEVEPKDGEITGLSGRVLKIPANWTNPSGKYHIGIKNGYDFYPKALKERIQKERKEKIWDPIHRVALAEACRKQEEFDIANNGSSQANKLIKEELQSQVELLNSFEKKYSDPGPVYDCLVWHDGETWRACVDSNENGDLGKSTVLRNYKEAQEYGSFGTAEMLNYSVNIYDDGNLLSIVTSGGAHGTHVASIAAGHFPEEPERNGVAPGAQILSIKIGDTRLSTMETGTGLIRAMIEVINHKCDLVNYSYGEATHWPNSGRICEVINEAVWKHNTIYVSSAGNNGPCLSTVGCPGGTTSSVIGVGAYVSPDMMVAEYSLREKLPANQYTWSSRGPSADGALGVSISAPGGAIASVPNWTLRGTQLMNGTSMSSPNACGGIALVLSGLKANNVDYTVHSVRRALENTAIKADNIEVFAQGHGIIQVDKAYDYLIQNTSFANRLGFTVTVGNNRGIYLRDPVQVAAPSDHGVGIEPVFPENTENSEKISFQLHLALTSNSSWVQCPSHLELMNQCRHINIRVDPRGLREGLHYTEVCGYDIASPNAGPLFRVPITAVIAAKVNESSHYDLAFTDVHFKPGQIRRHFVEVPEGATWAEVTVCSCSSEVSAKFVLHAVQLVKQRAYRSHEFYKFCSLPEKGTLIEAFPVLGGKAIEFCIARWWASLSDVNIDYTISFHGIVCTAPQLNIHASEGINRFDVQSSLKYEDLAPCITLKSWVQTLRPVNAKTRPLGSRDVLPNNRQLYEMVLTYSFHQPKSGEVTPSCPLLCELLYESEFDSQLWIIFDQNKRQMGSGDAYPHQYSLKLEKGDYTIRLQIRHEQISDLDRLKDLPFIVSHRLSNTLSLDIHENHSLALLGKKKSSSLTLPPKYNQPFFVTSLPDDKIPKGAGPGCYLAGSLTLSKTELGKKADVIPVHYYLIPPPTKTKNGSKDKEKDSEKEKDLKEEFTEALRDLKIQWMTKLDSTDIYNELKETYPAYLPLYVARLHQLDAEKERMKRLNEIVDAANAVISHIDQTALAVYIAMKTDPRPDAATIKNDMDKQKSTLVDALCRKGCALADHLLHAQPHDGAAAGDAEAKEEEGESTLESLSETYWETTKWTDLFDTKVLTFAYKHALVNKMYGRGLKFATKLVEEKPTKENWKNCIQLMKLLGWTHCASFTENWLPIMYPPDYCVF

Ki | SMILES
33 µM | CC(C)[C@H](N)C(=O)NCCCCc1ccccc1
650 µM | NCC(=O)N[C@@H](Cc1c[nH]c2ccccc12)C(=O)O (H-Gly-Trp-OH)
20 µM | CCCCNC(=O)[C@H](Cc1ccccc1)NC(=O)[C@@H](N)C(C)C (H-Val-Phe-NHBu)
20 µM | CSCC[C@H](NC(=O)[C@H](Cc1c[nH]c2ccccc12)NC(=O)CN)C(=O)O (H-Gly-Trp-Met-OH)
9 µM | CCCC[C@H](NC(=O)[C@@H](N)CCCC)C(=O)NC
86 µM | CC(C)[C@H](N)C(=O)NCCCc1ccccc1
2100 µM | CC(C)[C@H](N)C(=O)NC(CO)Cc1ccccc1 (stereo partly drawn)
11 µM | CNC(=O)[C@H](Cc1ccc(O)cc1)NC(=O)[C@@H](N)C(C)C (H-Val-Tyr-NHMe)
60 µM | CC(C)[C@H](N)C(=O)N[C@@H](Cc1ccc2ccccc2c1)C(=O)O (H-Val-[2Nal]-OH)
3000 µM | CC(C)[C@H](N)C(=O)N[C@@H](CC1CCCCC1)C(=O)O (H-Val-[Cha]-OH)
29 µM | CC(C)[C@H](NC(=O)CN)C(=O)N[C@@H](Cc1ccccc1)C(=O)O (H-Gly-Val-Phe-OH)
1140 µM | C[C@H](N)C(=O)N[C@@H](Cc1ccccc1)C(=O)O
29 µM | CNC(=O)[C@@H](NC(=O)[C@@H](N)C(C)C)c1ccccc1 (H-Val-[Phg]-NHMe)
14 µM | C[C@H](N)C(=O)N[C@@H](C)C(=O)N[C@@H](C)C(=O)O
3 µM | C[C@H](N)C(=O)N1CCC[C@H]1C(=O)N[C@@H](C)C(=O)O (H-Ala-Pro-Ala-OH)
860 µM | CCCC[C@H](NC(=O)[C@@H](N)C(C)C)C(=O)O (H-Val-[Nle]-OH)
5000 µM | CC(N)C(=O)NC(C)C(=O)O (stereo not drawn)
2000 µM | CSCC[C@@H](NC(=O)[C@@H](N)C(C)C)C(=O)O
> 5000 µM | CSCC[C@@H](N)C(=O)N[C@H](CCSC)C(=O)O (H-[dM]-[dM]-OH)
600 µM | CC(C)[C@H](N)C(=O)N[C@H](C(=O)O)c1ccccc1 (H-Val-[Phg]-OH)

Ki | SMILES
28 µM | CCC[C@H](NC(=O)[C@@H](N)C(C)C)C(=O)NC (H-Val-[Nva]-NHMe)
114 µM | C[C@H](N)C(=O)N[C@@H](C)C(=O)N1CCC[C@H]1C(=O)N[C@@H](C)C(=O)O (H-AAPA-OH)
> 500 µM | CCC[C@H](NC(=O)[C@@H](NC(C)=O)C(C)C)C(=O)O (Ac-Val-[Nva]-OH)
433 µM | CCC[C@H](NC(=O)[C@@H](N)C(C)C)C(=O)O (H-Val-[Nva]-OH)
1000 µM | CCC[C@H](NC(=O)[C@@H](N)CCC)C(=O)O (H-[Nva]-[Nva]-OH)
66 µM | CCCC[C@H](NC(=O)[C@@H](N)C(C)C)C(=O)NC (H-Val-[Nle]-NHMe)
> 3000 µM | CCCC[C@H](NCc1ccccc1)C(=O)N[C@@H](CCCC)C(=O)NC
80 µM | CC(C)[C@H](N)C(=O)NCc1ccccc1
210 µM | CC(C)C(N)C(=O)NC(Cc1ccc(OCc2ccccc2)cc1)C(=O)O (stereo not drawn) (H-Val-Tyr(Bn)-OH; configuration not given here)
857 µM | CC(C)[C@H](N)C(=O)N[C@@H](Cc1ccc(O)cc1)C(=O)O (H-Val-Tyr-OH)
57 µM | CCCCNC(=O)[C@H](CC1CCCCC1)NC(=O)[C@@H](N)C(C)C (H-Val-[Cha]-NHBu)
9000 µM | CC(C)[C@H](N)C(=O)N[C@@H](C)C(=O)O (H-Val-Ala-OH)
110 µM | NCC(=O)NCC(=O)N[C@@H](Cc1ccccc1)C(=O)O (H-Gly-Gly-Phe-OH)
230 µM | CCCCOC(=O)[C@H](Cc1ccccc1)NC(=O)[C@@H](N)C(C)C
114 µM | CC(C)[C@H](N)C(=O)NCCc1ccccc1
29 µM | CCCC[C@H](NC(=O)[C@@H](N)C(C)C)C(=O)NCCCc1ccccc1
> 5000 µM | CCCC[C@H](NC)C(=O)N[C@@H](CCCC)C(=O)OC
> 5000 µM | CC(C)C(NC(=O)C(NC(=O)OCc1ccccc1)C(C)C)C(=O)O (stereo not drawn) (Cbz-Val-Val-OH; configuration not given here)
2000 µM | CSCC[C@@H](N)C(=O)N[C@@H](Cc1ccc(O)cc1)C(=O)O
1430 µM | CCCC[C@H](NC(=O)[C@@H](N)CCCC)C(=O)O

Ki | SMILES
14 µM | CCCCNC(=O)[C@H](CCCC)NC(=O)[C@@H](N)C(C)C (H-Val-[Nle]-NHBu)
1400 µM | C[C@H](N)C(=O)N1CCC[C@H]1C(=O)O (H-Ala-Pro-OH)
470 µM | NCC(=O)N[C@@H](Cc1ccccc1)C(=O)O (H-Gly-Phe-OH)
> 3000 µM | CCCC[C@H](NC)C(=O)N[C@@H](CCCC)C(=O)NC
> 5000 µM | N[C@@H](CC(=O)O)C(=O)N[C@@H](Cc1ccc(O)cc1)C(=O)O (H-Asp-Tyr-OH)
290 µM | CCCCOC(=O)[C@H](CCCC)NC(=O)[C@@H](N)C(C)C
570 µM | CC(C)[C@H](N)C(=O)N[C@@H](CCc1ccccc1)C(=O)O (H-Val-[hPhe]-OH)
> 5000 µM | CCCCOC(=O)N[C@H](C(=O)N[C@@H](CCCC)C(=O)O)C(C)C
3 µM | CCCCNC(=O)[C@H](CCC)NC(=O)[C@@H](N)C(C)C (H-Val-[Nva]-NHBu)
1670 µM | CC(C)[C@H](N)C(=O)N[C@H](C(=O)O)C(C)C [VAL-VAL] (H-Val-Val-OH)
1 µM | CC[C@H](C)[C@H](N)C(=O)N1CCC[C@H]1C(=O)N[C@H](C(=O)O)[C@@H](C)CC [DIPROTIN A]
> 5000 µM | CCCC(NC(=O)C(NC(=O)OCc1ccccc1)C(C)C)C(=O)O (stereo not drawn) (Cbz-Val-[Nva]-OH; configuration not given here)
50 µM | CSCC[C@H](NC(=O)[C@H](Cc1ccc(O)cc1)NC(=O)[C@@H](N)CC(=O)O)C(=O)O (H-Asp-Tyr-Met-OH)
> 3000 µM | CCCCOC(=O)C(CCCC)NC(=O)C(NC(=O)OCc1ccccc1)C(C)C (stereo not drawn)
46 µM | CNC(=O)[C@@H](NC(=O)[C@@H](N)C(C)C)C(C)C (H-Val-Val-NHMe)
22 µM | CNC(=O)[C@H](Cc1ccccc1)NC(=O)[C@@H](N)C(C)C (H-Val-Phe-NHMe)
> 5000 µM | CCC[C@H](NC(=O)[C@@H](NCc1ccccc1)C(C)C)C(=O)O
260 µM | COC(=O)[C@H](Cc1ccccc1)NC(=O)[C@@H](N)C(C)C (H-Val-Phe-OMe)
